{"source": "patent US10753935B2", "about": "“Prognostic method and kits useful in said method” (Zelda Therapeutics Operations Pty Ltd, priority 2016, dated 2020)", "key": {"[1]": {"target": "T1, HER2-CB2 heteromers (Homo sapiens, UniProt P34972)", "T1 sequence (P34972 whole entry, one chain of several)": "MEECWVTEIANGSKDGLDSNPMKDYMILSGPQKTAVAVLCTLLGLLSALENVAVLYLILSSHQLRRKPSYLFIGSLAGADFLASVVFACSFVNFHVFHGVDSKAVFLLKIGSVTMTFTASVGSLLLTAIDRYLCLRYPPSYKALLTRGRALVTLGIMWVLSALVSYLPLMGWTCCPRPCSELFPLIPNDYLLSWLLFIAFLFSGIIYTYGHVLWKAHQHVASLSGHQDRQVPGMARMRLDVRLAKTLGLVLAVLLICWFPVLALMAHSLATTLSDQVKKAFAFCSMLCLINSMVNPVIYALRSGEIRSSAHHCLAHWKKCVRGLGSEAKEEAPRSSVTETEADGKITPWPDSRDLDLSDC", "assay": "Co-immunoprecipitation of HER2 and CB2-HA in BT474 cells", "format": "cell-based", "conditions": "BT474 cells transfected with CB2-HA; 3 μM THC for 4 h", "method": "(§1) FIG. 3. Western blot analysis of HER2 and CB2 in the indicated cell lines. Cells were transfected with a CB2-HA encoding plasmid and treated with THC for 4 h. HER2 was then immune-precipitated with an anti-HER2 antibody, and blots were developed with anti-HA antibodies.\n(§2) HCC1954 and BT474 cells were transiently transfected with pcDNA3-HA-hCB2 or the corresponding empty vector (pcDNA3), using Fugene HD Transfection Reagent (Promega, Madison, Wis.). 48 h after transfection, cells were treated with 3 μM THC or the corresponding vehicle (DMSO) for 4 h, and lysed using a specific buffer for co-immunoprecipitation (40 mM Hepes pH 7.5, 120 mM NaCl, 1 mM EDTA, 10 mM sodium pyrophosphate, 10 mM sodium glycerophosphate, 50 mM sodium fluoride, 0.5 mM sodium orthovanadate, 0.3% CHAPS and supplemented with 1 mM benzamidine and 0.1 mM PMSF in fresh). Cell lysates (1 mg) were immunoprecipitated using 5 μg of anti-ErbB2 antibody (Neu C-18, Santa Cruz Biotechnology, Santa Cruz, Calif., US) covalently coupled to 5 μL protein G-sepharose. After immunoprecipitation, proteins were separated by SDS-10% polyacrylamide reducing gels and transferred to PVDF membranes. […] Bound antibodies were detected with a donkey anti-rabbit immunoglobulin G (IgG) peroxidase-labeled antibody (GE Healthcare, UK). […]"}, "[2]": {"system": "HER2", "assay": "Western blot of HER2 in HCC1954 cells", "format": "cell-based, human", "conditions": "THC treatment", "method": "FIG. 5. Protein expression in HCC1954 cells. Protein expression analysis by Western blot of total and phosphorylated (i.e., activated) HER2 in response to THC.\n(§3) We have now confirmed this observation by Western blot in HCC1954 cells (FIG. 5).\nHCC1954 cells were treated with RIPA buffer (50 mM Tris, 150 mM NaCl, 1% NP-40, 0.5% sodium deoxycholate, and 0.1% sodium dodecyl sulfate), containing a cocktail of protease inhibitors (pepstatin, leupeptin, aprotinin, quimostatin, antipain, and phenylmethylsulfonyl fluoride) and phosphatase inhibitors (Na3VO4 and NaF; Sigma Chemical Co., St. Louis, Mo.). Proteins separated by sodium dodecyl sulfate-10% polyacrylamide reducing gels were transferred to polyvinylidene difluoride membranes (Bio-Rad Laboratories, Hercules, Calif.). After blocking with 5% skim milk and 1% bovine serum albumin, membranes were incubated with the anti-ErbB2 antiserum (Santa Cruz Biotechnology, Santa Cruz, Calif.) diluted 1:500 for 3 h at room temperature. […] A chemiluminescence detection system (Amersham Pharmacia Biotech, Piscataway, N.J.) was used to reveal peroxidase. Controls were carried out with an anti-actin monoclonal antibody (MAb; Boehringer Mannheim, Indianapolis, Ind.) diluted 1:5,000 followed by an anti-mouse IgG peroxidase-labeled antibody diluted 1:4,000 (Zymed)."}, "[3]": {"system": "HER2-HER2 dimers", "assay": "In situ proximity ligation assay of HER2-HER2 dimers in HCC1954 cells", "format": "cell-based, human", "conditions": "THC treatment", "method": "FIG. 6. HER2-HER2 dimer expression in HCC1954 cells. Representative images of the PLA experiments, in response to the indicated treatments.\n(§4) Cells were grown on glass coverslips and fixed in 4% paraformaldehyde, washed with PBS containing 20 mM glycine, permeabilized with the same buffer containing 0.05% Triton® X-100, and washed successively with PBS. HER2-CB2R heteromers were detected using the Duolink in situ Probemarker kit (Olink, Bioscience, Uppsala, Sweden). After 1 h of incubation at 37° C. with the blocking solution in a preheated humidity chamber, cells were incubated overnight in the antibody dilution medium with a mixture of equal amounts of rabbit anti-CB2 antibody (1:50, Cayman Chemical, Ann Arbor, Mich.) directly linked to a plus PLA probe, and rabbit anti-HER2 antibody (1:50, Santa Cruz Biotechnology, Santa Cruz, Calif., US) directly linked to a minus PLA probe. […] Amplification was done with the Duolink II detection reagents red kit, which contains fluorescence nucleotides. […] PLA requires that both receptors be close enough to allow the two different antibody-DNA probes to be able to ligate (<17 nm) ((Soderberg et al., (2008), Methods., 45: 227-232; Trifilieff et al., (2011), BioTechniques, 51: 111-118). If the receptors are within sufficient proximity, a punctate fluorescent signal can be detected by confocal microscopy."}, "[4]": {"system": "HER2", "assay": "HER2 degradation in BT474 cells", "format": "cell-based, human", "conditions": "THC treatment, previously observed", "from_the_text": "(§5) As discussed in Example 1, we observed these effects using Proximity Ligation assays (PLAs) and Bioluminescence Resonance Energy Transfer (BRET) assays.\nas §3"}, "[5]": {"target": "T1, HER2-CB2 heteromers", "assay": "In situ proximity ligation assay of HER2-CB2 heteromers in HCC1954 cells", "format": "cell-based", "set-up": "HER2-CB2 heteromer expression in HCC1954 cells; endogenous in cells; host or cells: HCC1954", "conditions": "THC treatment", "protocol": "HER2-CB2 heteromer expression in HCC1954 cells. Representative images of the PLA experiments, in response to the indicated treatments.\nCells were grown on glass coverslips and fixed in 4% paraformaldehyde, washed with PBS containing 20 mM glycine, permeabilized with the same buffer containing 0.05% Triton® X-100, and washed successively with PBS. HER2-CB2R heteromers were detected using the Duolink in situ Probemarker kit (Olink, Bioscience, Uppsala, Sweden). After 1 h of incubation at 37° C. with the blocking solution in a preheated humidity chamber, cells were incubated overnight in the antibody dilution medium with a mixture of equal amounts of rabbit anti-CB2 antibody (1:50, Cayman Chemical, Ann Arbor, Mich.) directly linked to a plus PLA probe, and rabbit anti-HER2 antibody (1:50, Santa Cruz Biotechnology, Santa Cruz, Calif., US) directly linked to a minus PLA probe. Cells were washed with wash buffer A at room temperature and incubated in a preheated humidity chamber for 30 min at 37° C. with the ligation solution (Duolink® II ligation stock, 1:5, and Duolink II ligase, 1:40) to induce annealing and ligation of the two DNA probes. Amplification was done with the Duolink II detection reagents red kit, which contains fluorescence nucleotides. After exhaustive washing at room temperature with wash buffer B, cells were mounted using mounting medium with DAPI. […]"}, "[6]": {"target": "T1, HER2-CB2 heteromers", "assay": "Co-immunoprecipitation of HER2 and CB2-HA in HCC1954 cells", "format": "cell-based", "set-up": "HER2-CB2 heteromer expression in HCC1954 cells; endogenous in cells; host or cells: HCC1954", "conditions": "HCC1954 cells transfected with CB2-HA; 3 μM THC for 4 h", "method": "as §1, §2"}, "[7]": {"target": "T1, HER2-CB2 heteromers", "assay": "PLA and BRET assays of HER2-CB2 heteromers in BT474 cells", "format": "cell-based", "conditions": "THC at concentrations that produce anti-tumor responses, previously reported by the applicants", "method": "as §5, §4"}}}
{"smiles": "CCCCCc1cc(O)c2c(c1)OC(C)(C)[C@@H]1CCC(C)=C[C@@H]21", "note": "[THC, Δ^9-tetrahydrocannabinol]", "values": [{"measurement": "effect on HER2-CB2 heteromers (co-IP)", "setting": "[1]", "value": "disrupts HER2-CB2 heteromers"}, {"measurement": "effect on HER2 protein level (Western blot)", "setting": "[2]", "value": "degradation of HER2"}, {"measurement": "effect on HER2-HER2 dimers (PLA)", "setting": "[3]", "value": "disrupts not only HER2-CB2 but also HER2-HER2 dimers"}, {"measurement": "effect on HER2 protein level", "setting": "[4]", "value": "degradation of HER2"}, {"measurement": "effect on HER2-CB2 heteromers (PLA)", "setting": "[5]", "value": "breaks the heteromers by acting on CB2"}, {"measurement": "effect on HER2-CB2 heteromers (co-IP)", "setting": "[6]", "value": "disrupts HER2-CB2 heteromers"}, {"measurement": "effect on HER2-CB2 heteromers (PLA, BRET)", "setting": "[7]", "value": "disrupts HER2-CB2 heteromers"}]}
